Measured values published in patent publication US20070072807A1, “Method of screening compounds” (SmithKline Beecham Corporation & SmithKline Beecham p.l.c., priority 1999, published 2007).
Blank lines part the entries; values can stand above or below the molecule they belong to. Numbered stars: 1 amine (or outer) side, 2 acyl side, 3 side chain; on linkers, the order of the positions; unused ones are H or OH. Square brackets hold non-standard residues; d marks the D form. Peptide text beside a SMILES is read from it. * marks the point of attachment. Hexanoyl(5S-NH,4S-OH,6-Ph) = O=C(CC[C@H](O)[C@H](Cc1ccccc1)N[*:1])[*:2]; X2 = Nc1ccc2c(c1)Oc1ccccc1C21OC(=O)c2cc(C(=O)*)ccc21; X1 = CC(C)C[C@H](N[*:1])[C@@H](O)CCC(=O)[*:2]

Columns and labels:
[1] = target: T1, Asp1 (Homo sapiens, UniProt Q9Y5Z0); assay: Fluorescence Resonance Energy Transfer (FRET) cleavage assay for Asp1; type: biochemical
T1 construct: A cDNA fragment encoding Asp1(EP0848062), amino acids 1 to 473; made in house; host or cells: CHO E1A (Chinese hamster ovary)
T1 sequence (Q9Y5Z0 with tags, fused parts or gaps limits assumed): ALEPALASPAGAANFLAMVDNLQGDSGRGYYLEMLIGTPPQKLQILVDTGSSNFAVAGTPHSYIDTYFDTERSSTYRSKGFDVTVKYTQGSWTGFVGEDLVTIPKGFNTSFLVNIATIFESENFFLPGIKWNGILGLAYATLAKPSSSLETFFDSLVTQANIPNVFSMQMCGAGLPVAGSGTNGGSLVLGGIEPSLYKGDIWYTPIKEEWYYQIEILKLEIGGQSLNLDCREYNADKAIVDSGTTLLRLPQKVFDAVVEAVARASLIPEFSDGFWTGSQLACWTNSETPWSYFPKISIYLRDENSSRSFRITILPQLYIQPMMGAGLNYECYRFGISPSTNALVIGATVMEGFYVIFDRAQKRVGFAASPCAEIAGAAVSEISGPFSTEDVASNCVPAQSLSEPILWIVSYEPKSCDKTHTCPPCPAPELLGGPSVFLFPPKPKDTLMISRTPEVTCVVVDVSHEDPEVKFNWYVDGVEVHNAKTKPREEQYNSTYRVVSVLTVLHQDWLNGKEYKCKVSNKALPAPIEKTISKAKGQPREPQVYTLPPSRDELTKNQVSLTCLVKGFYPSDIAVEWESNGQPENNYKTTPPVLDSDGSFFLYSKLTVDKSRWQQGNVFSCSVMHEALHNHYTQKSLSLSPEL
Description: Fluorescence Resonsance Energy Transfer (FRET) Cleavage Assay for Asp1
A peptide (X) based on the sequence of the Swedish variant APP beta-site sequence has been doubly labelled for use in a FRET assay. [drawing 2] [drawing 3] This peptide includes the 11 residues spanning the Swedish variant beta-cleavage site (Ile-Ser-Glu-Val-Asn-Leu-Asp-Ala-Glu-Phe-Arg SEQ ID NO:2) with an N-terminal rhodamine green group and C-terminal tetramethylrhodamine group. This would allow cleavage of the intervening peptide sequence by Asp1 to be monitored by energy transfer between the two fluorescent groups.
In practice assays were conducted as follows:
The fluorescent peptide substrate (0.5 uM) was incubated with Asp1-Fc enzyme prepared as described above in a buffer containing 50 mM sodium acetate, 20 mM sodium chloride, 5% glycerol, 0.1% CHAPS (3-[(3-Cholamidopropyl)dimethylammonio]-1-propane-sulphonate), pH 3.8). The assays were started by addition of enzyme (50 nM final concentration) and cleavage monitored on a fluorescent platereader with 485 nm excitation, 538 nm emission. The C-terminal TAMRA group of the peptide acted as effective quencher, thus an increase in rhodamine green intensity was observed upon cleavage.
This assay was used to determine IC50 and Ki values for compounds of interest. […] Asp1 Fluorescence Polarisation Assay.

[2] = target: T1, Asp1; assay: Asp1 fluorescence polarisation (competition) binding assay
Procedure: A competition assay has also been designed to identify compounds acting at the Asp1 active site. The hydroxyethylene inhibitor (I) has been modified by addition of 5-, 6-rhodamine green to the free N-terminal amine of the compound to create labelled ligand (II). [drawing 5]
The resulting compound was tested experimentally as follows to determine the Kd with Asp1-Fc enzyme, prepared as above.
A three dimensional analysis varying enzyme and ligand (II) was performed. Ligand concentration range was 1, 3, 10, 30 and 100 nM. Enzyme concentration range was from 100 nM down in serial twofold dilutions (11 dilutions+no enzyme control).
Ligand of appropriate concentration was prepared in 5% DMSO. The enzyme solutions were prepared in 2 times (×2) assay buffer (where ×1=50 mM sodium acetate, 20 mM sodium chloride, 5% glycerol, 0.1% CHAPS, pH 3.8). 5 ul of the enzyme solution (of varying concentration) was mixed with 5 ul of the ligand (of varying concentration) in a low volume 384 microtitre plate. The samples were allowed to equilibrate for 15 min before the fluorescence polarisation was read on an LJL ACQUEST platereader.
The Anisotropy values were plotted and the Kd for the tight binding interaction obtained.
Enzyme (at a fixed concentration of 50 nM), ligand (II) (at a fixed concentration of 5.0 nM) and test compound (5 uM down in twofold serial dilutions) were mixed in ×1 assay buffer in a final assay volume of 10 ul and allowed to equilibrate for 3 hrs. The fluorescence polarisation was then read. The experiment was performed in duplicate.

- IC50 ([1]; FRET cleavage assay, Asp1-Fc enzyme): 60 nM
- displacement of the fluorescent ligand (II) ([2]; at the highest concentrations of test compound (5 uM down in twofold serial dilutions)): Complete displacement
- Ki ([2]; competition against ligand (II) 5.0 nM, enzyme 50 nM, equilibrated 3 hrs, duplicate): 50 nM
SMILES: CC(C)C[C@H](NC(=O)[C@H](C)NC(=O)[C@@H](NC(=O)[C@@H](N)CCC(=O)O)C(C)C)[C@@H](O)CCC(=O)N[C@@H](C)C(=O)N[C@@H](CCC(=O)O)C(=O)N[C@@H](Cc1ccccc1)C(=O)O [Compound (III)] (H-EVA[X1]AEF-OH)

- Ki ([1]; Asp1-Fc enzyme 50 nM, fluorescent peptide substrate 0.5 uM, pH 3.8): 2.5 nM
SMILES: CC(C)[C@H](NC(=O)[C@@H](N)CCC(=O)O)C(=O)N[C@@H](CC(N)=O)C(=O)N[C@@H](Cc1ccccc1)[C@@H](O)CCC(=O)N[C@@H](C)C(=O)N[C@@H](CCC(=O)O)C(=O)N[C@@H](Cc1ccccc1)C(=O)O [compound (I)] (H-EVN[Hexanoyl(5S-NH,4S-OH,6-Ph)]AEF-OH)

- Kd ([2]; tight binding interaction of labelled ligand with Asp1-Fc enzyme, from anisotropy values, pH 3.8): 0.075 nM
SMILES: CC(C)[C@H](NC(=O)[C@H](CCC(=O)O)NC(=O)c1ccc2c(c1)C(=O)OC21c2ccccc2Oc2cc(N)ccc21)C(=O)N[C@@H](CC(N)=O)C(=O)N[C@@H](Cc1ccccc1)[C@@H](O)CCC(=O)N[C@@H](C)C(=O)N[C@@H](CCC(=O)O)C(=O)N[C@@H](Cc1ccccc1)C(=O)O (stereo partly drawn) [ligand (II)] (X2-EVN[Hexanoyl(5S-NH,4S-OH,6-Ph)]AEF-OH)
